In ChEMBL document CHEMBL1201862, “PubChem BioAssay data set” (2004):
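Protocol summary: plate cells (96-well), add compound at 5 concentrations, incubate 48 h, interpolate endpoints linearly. GI50: concentration for 50% inhibition of growth.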 Active and inactive are the calls of the source. Cut-off read from the data, not from the text of the source: active = GI50 up to about 1.1 µM and inactive = higher.

Assays:
Assay in all cases: NCI tumour cell line growth inhibition, 48 h
HCT-15 = system: HCT-15
COLO 205 = system: COLO 205
SK-MEL-28 = system: SK-MEL-28
HCC 2998 = system: HCC 2998
SK-MEL-5 = system: SK-MEL-5
EKVX = system: EKVX
U-251 = system: U-251
ACHN = system: ACHN
OVCAR-4 = system: OVCAR-4
DLD-1 = system: DLD-1
IGROV-1 = system: IGROV-1
OVCAR-3 = system: OVCAR-3
SF-295 = system: SF-295
A549 = system: A549
HL-60 = system: HL-60
RPMI-8226 = system: RPMI-8226
NCI-H522 = system: NCI-H522
SK-MEL-2 = system: SK-MEL-2

Row | Compound | GI50 (HCT-15) [µM] | GI50 (COLO 205) | GI50 (SK-MEL-28) | GI50 (HCC 2998) | GI50 (SK-MEL-5) | GI50 (EKVX) | GI50 (U-251) | GI50 (ACHN) | GI50 (OVCAR-4) | GI50 (DLD-1) | GI50 (IGROV-1) | GI50 (OVCAR-3) | GI50 (SF-295) | GI50 (A549) | GI50 (HL-60) | GI50 (RPMI-8226) | GI50 (NCI-H522) | GI50 (SK-MEL-2)
1 | Cc1cccc(C(C)(C)C)c1NC(=O)CCc1n[nH]c(=S)o1 | 21.7 | 16.6 µM (inactive) | > 100 µM (inactive) | > 100 µM (inactive) | > 100 µM (inactive) | > 100 µM (inactive) | > 100 µM (inactive) | > 100 µM (inactive) | > 100 µM (inactive) | 98.4 µM (inactive) | > 100 µM (inactive) | > 100 µM (inactive) | > 100 µM (inactive) | > 100 µM (inactive) | > 100 µM (inactive) | 22.8 µM (inactive) | > 100 µM (inactive) | –
2 | Cn1c(=O)oc2cc(C3CCC(=O)N3Cc3csc(-c4ccccc4)n3)ccc21 (stereo not given) | > 100 | 77.3 µM (inactive) | > 100 µM (inactive) | > 100 µM (inactive) | > 100 µM (inactive) | > 100 µM (inactive) | > 100 µM (inactive) | > 100 µM (inactive) | > 100 µM (inactive) | 86.9 µM (inactive) | > 100 µM (inactive) | – | > 100 µM (inactive) | > 100 µM (inactive) | 79.8 µM (inactive) | > 100 µM (inactive) | > 100 µM (inactive) | > 100 µM (inactive)
3 | CC1C=C(OC(=O)c2ccccc2)C(=O)C(n2cc(F)c(=O)[nH]c2=O)O1 (stereo not given) | 50.6 | 50.9 µM (inactive) | 53.1 µM (inactive) | 5.56 µM (inactive) | 91 µM (inactive) | > 100 µM (inactive) | 97.3 µM (inactive) | 59.7 µM (inactive) | 53.2 µM (inactive) | 22.8 µM (inactive) | > 100 µM (inactive) | > 100 µM (inactive) | > 100 µM (inactive) | 38.2 µM (inactive) | 64.3 µM (inactive) | 23.9 µM (inactive) | > 100 µM (inactive) | 79.3 µM (inactive)
4 | COc1cc(-c2n[nH]cc2CCCC(=O)Nc2ccccc2[N+](=O)[O-])ccc1O | 64.6 | > 100 µM (inactive) | > 100 µM (inactive) | > 100 µM (inactive) | 61.4 µM (inactive) | 64.9 µM (inactive) | 75.2 µM (inactive) | > 100 µM (inactive) | > 100 µM (inactive) | > 100 µM (inactive) | > 100 µM (inactive) | – | > 100 µM (inactive) | 73.8 µM (inactive) | 35.9 µM (inactive) | 40.2 µM (inactive) | 94 µM (inactive) | –
5 | CCC1C(C(=O)Nc2ccccc2C)=C(C)NC(C)=C1c1ccccc1C (stereo not given) | > 40.1 | > 77.1 µM (inactive) | > 100 µM (inactive) | > 100 µM (inactive) | > 100 µM (inactive) | > 100 µM (inactive) | > 100 µM (inactive) | > 100 µM (inactive) | > 100 µM (inactive) | > 39.7 µM (inactive) | > 100 µM (inactive) | > 100 µM (inactive) | > 100 µM (inactive) | > 78 µM (inactive) | 11.6 µM (inactive) | 31.8 µM (inactive) | > 100 µM (inactive) | > 100 µM (inactive)
6 | CN(C)CCn1c2c3ccccc3ccc2c2oc(=O)c3ccccc3c21 | 8.34 | 4.17 µM (inactive) | 5.68 µM (inactive) | – | – | 12.6 µM (inactive) | 7.46 µM (inactive) | 5.24 µM (inactive) | 6.44 µM (inactive) | 5.11 µM (inactive) | 12.1 µM (inactive) | 4.4 µM (inactive) | 9.04 µM (inactive) | 3.88 µM (inactive) | > 100 µM (inactive) | 4.35 µM (inactive) | 9.46 µM (inactive) | 17.9 µM (inactive)
7 | CC(=O)O[C@H]1CC[C@@]2(C)C(=CC[C@H]3C(CC#N)[C@@](C)(C#N)CCC32)C1 (stereo not given in full) | > 100 | > 100 µM (inactive) | > 100 µM (inactive) | > 100 µM (inactive) | > 100 µM (inactive) | > 100 µM (inactive) | 74 µM (inactive) | > 100 µM (inactive) | > 100 µM (inactive) | > 100 µM (inactive) | > 100 µM (inactive) | > 100 µM (inactive) | > 100 µM (inactive) | > 100 µM (inactive) | > 100 µM (inactive) | > 100 µM (inactive) | – | > 100 µM (inactive)
8 | CC(C)CC(CNC(Cc1ccc(Cl)cc1)C(N)=O)NC(=O)C(Cc1c[nH]cn1)NC(=O)CNC(=O)C(NC(=O)C(C)NC(=O)C(Cc1c[nH]c2ccccc12)NC(=O)C(CCC(=O)O)NC(=O)C(N)Cc1ccccc1)C(C)C (stereo not given) | > 133 | > 133 µM (inactive) | > 133 µM (inactive) | > 133 µM (inactive) | – | > 133 µM (inactive) | > 133 µM (inactive) | > 133 µM (inactive) | > 133 µM (inactive) | > 133 µM (inactive) | > 133 µM (inactive) | > 133 µM (inactive) | > 133 µM (inactive) | > 133 µM (inactive) | > 133 µM (inactive) | > 133 µM (inactive) | – | > 133 µM (inactive)
